pIC50: −log10 of the molar value. Where two headings read alike, the source gives them in different places.
Legend:
PDE4D = target: T1, PDE4D (Homo sapiens, UniProt Q08499); assay: PDE4 IC50 determination by Scintillation Proximity Assay, PDE4D; type: biochemical
T1 construct: PDE4D: The catalytic domain of human PDE4B from S3 16-V692; His6 (N); thrombin cleavage site (N); made in house; host or cells: E. coli
How it was run: (§1)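 Scintillation counts reflected [^3H]AMP captured on yttrium silicate SPA beads after enzyme hydrolysed [^3H]cAMP for 30 min at 30°. PDE4B was used at 80 ng/ml and PDE4D at 4 ng/ml. IC50 values came from non-linear regression.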

[1] = target: T2, PDE4B: The catalytic domain of human PDE4B from S152-S528 (Homo sapiens, UniProt Q07343); assay: PDE4 IC50 determination by Scintillation Proximity Assay, PDE4B; type: biochemical
T2 construct: His6 (N); thrombin cleavage site (N); made in house; host or cells: E. coli
T2 sequence (Q07343 with tags, fused parts or gaps): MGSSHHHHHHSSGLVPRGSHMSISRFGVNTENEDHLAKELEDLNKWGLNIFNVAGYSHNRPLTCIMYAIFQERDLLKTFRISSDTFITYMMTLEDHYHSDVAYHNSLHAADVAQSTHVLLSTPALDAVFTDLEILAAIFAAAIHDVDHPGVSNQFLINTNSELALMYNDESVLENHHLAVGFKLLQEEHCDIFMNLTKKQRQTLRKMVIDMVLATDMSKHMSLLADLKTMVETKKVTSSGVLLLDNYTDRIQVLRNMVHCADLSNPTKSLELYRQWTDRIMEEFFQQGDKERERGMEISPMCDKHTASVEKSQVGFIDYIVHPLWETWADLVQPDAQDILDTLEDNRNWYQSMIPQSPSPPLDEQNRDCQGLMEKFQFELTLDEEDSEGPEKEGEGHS
How it was run: as §1

[2] = second part of Table 2B (2-23 to 2-103), column 5, column is PDE4D in first part, read-out: IC 50 vs. indicated assay h TNFα
[3] = second part of Table 2B (2-23 to 2-103), column 3, column is PDE4B in first part, read-out: IC 50 vs. indicated assay h TNFα
[4] = Table 3A, Formula III compounds, read-out: IC50 PDE4D
[5] = Table 3A, Formula III compounds, read-out: IC50 PDE4B

T1 sequence (Q08499 380-756): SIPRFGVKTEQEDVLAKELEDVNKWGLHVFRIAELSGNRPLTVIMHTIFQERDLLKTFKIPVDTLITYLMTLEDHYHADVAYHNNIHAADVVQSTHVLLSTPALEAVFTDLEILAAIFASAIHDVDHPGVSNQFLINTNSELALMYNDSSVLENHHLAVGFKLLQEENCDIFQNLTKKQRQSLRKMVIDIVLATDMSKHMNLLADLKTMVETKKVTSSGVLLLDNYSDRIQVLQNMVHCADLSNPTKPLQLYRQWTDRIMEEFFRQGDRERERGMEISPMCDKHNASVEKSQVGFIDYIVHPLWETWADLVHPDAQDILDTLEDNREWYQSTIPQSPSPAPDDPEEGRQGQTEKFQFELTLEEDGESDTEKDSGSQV

pIC50 (PDE4D; [2])	pIC50 [1, 3]	pIC50 (PDE4D; [4])	pIC50 [1, 5]	Structure (SMILES)
< 5.00	< 5.00	–	–	COc1ccc(Nc2nc(N)c(C(=O)C3CCCC3)s2)cc1 [Compound 2-99, [4-Amino-2-(4-methoxy-phenylamino)-thiazol-5-yl]-cyclopentyl-methanone]
> 5.00	> 5.00	–	–	N#Cc1cccc(Nc2nc(N)c(C(=O)C3CCCC3)s2)c1 [Compound 2-100, 3-(4-Amino-5-cyclopentanecarbonyl-thiazol-2-ylamino)-benzonitrile]
< 5.00	< 5.00	–	–	Nc1nc(Nc2ccc(Oc3ccccc3)cc2)sc1C(=O)C1CCCC1 [Compound 2-101, [4-Amino-2-(4-phenoxy-phenylamino)-thiazol-5-yl]-cyclopentyl-methanone]
> 5.00	> 5.00	–	–	Nc1nc(NC2CCCC2)sc1C(=O)c1ccsc1 [Compound 2-102, (4-Amino-2-cyclopentylamino-thiazol-5-yl)-thiophen-3-yl-methanone]
> 5.00	> 5.00	–	–	Nc1nc(NC2CCCC2)sc1C(=O)c1nc2ccccc2s1 [Compound 2-103, (4-Amino-2-cyclopentylamino-thiazol-5-yl)-benzothiazol-2-yl-methanone]
–	–	< 5.00	< 5.00	O=S(=O)(Nc1cccc2cccnc12)c1cccs1 [Compound 3-1, Thiophene-2-sulfonic acid guinolin-8-ylamide]
–	–	< 5.00	< 5.00	COc1cc(NS(=O)(=O)c2ccc(Br)s2)c2ncccc2c1 [Compound 3-2, 5-Bromo-thiophene-2-sulfonic acid (6-methoxy-quinolin-8-yl)-amide]
–	–	< 5.00	< 5.00	Cc1ccc2cccnc2c1NS(=O)(=O)c1ccc(Cl)s1 [Compound 3-3, 5-Chloro-thiophene-2-sulfonic acid (7-methyl-quinolin-8-yl)-amide]
–	–	< 5.00	< 5.00	O=S(=O)(Nc1cccc2cccnc12)c1ccc(Br)s1 [Compound 3-4, 5-Bromo-thiophene-2-sulfonic acid quinolin-8-ylamide]
–	–	< 5.00	< 5.00	Cc1ccc2cccnc2c1NS(=O)(=O)c1cccs1 [Compound 3-5, Thiophene-2-sulfonic acid (7-methyl-quinolin-8-yl)-amide]
–	–	< 5.00	< 5.00	Cc1ccc2cccnc2c1NS(=O)(=O)c1ccc(Br)s1 [Compound 3-6, 5-Bromo-thiophene-2-sulfonic acid (7-methyl-quinolin-8-yl)-amide]
–	–	< 5.00	< 5.00	O=S(=O)(Nc1cccc2cccnc12)c1ccc(Cl)s1 [Compound 3-7, 5-Chloro-thiophene-2-sulfonic acid quinolin-8-ylamide]
–	–	< 5.00	< 5.00	Cc1ccc2cccnc2c1NS(=O)(=O)c1cc(Cl)c(Cl)s1 [Compound 3-8, 4,5-Dichloro-thiophene-2-sulfonic acid (7-methyl-quinolin-8-yl)-amide]
–	–	< 5.00	< 5.00	COc1cc(NS(=O)(=O)c2cc(Cl)c(Cl)s2)c2ncccc2c1 [Compound 3-9, 4,5-Dichloro-thiophene-2-sulfonic acid (6-methoxy-quinolin-8-yl)-amide]
–	–	< 5.00	< 5.00	O=S(=O)(Nc1cccc2cccnc12)c1cc(Cl)c(Cl)s1 [Compound 3-10, 4,5-Dichloro-thiophene-2-sulfonic acid quinolin-8-ylamide]
–	–	< 5.00	< 5.00	Cc1ccc2cccnc2c1NS(=O)(=O)c1cc(Cl)sc1Cl [Compound 3-11, 2,5-Dichloro-thiophene-3-sulfonic acid (7-methyl-quinolin-8-yl)-amide]
–	–	< 5.00	< 5.00	COc1cc(NS(=O)(=O)c2ccc(Cl)s2)c2ncccc2c1 [Compound 3-12, 5-Chloro-thiophene-2-sulfonic acid (6-methoxy-quinolin-8-yl)-amide]
–	–	< 5.00	< 5.00	COc1cc(NS(=O)(=O)c2cccs2)c2ncccc2c1 [Compound 3-13, Thiophene-2-sulfonic acid (6-methoxy-quinolin-8-yl)-amide]
–	–	> 5.00	> 5.00	COc1cc(NS(=O)(=O)c2ccc(-c3ccnc(SC)n3)s2)c2ncccc2c1 [Compound 3-14, 5-(2-Methylsulfanyl-pyrimidin-4-yl)-thiophene-2-sulfonic acid (6-methoxy-quinolin-8-yl)-amide]

pIC50 (PDE4D; [2])	pIC50 [1, 3]	pIC50 (PDE4D; [4])	pIC50 [1, 5]	Structure (SMILES)
–	–	< 5.00	< 5.00	CSc1nccc(-c2ccc(S(=O)(=O)Nc3c(C)ccc4cccnc34)s2)n1 [Compound 3-15, 5-(2-Methylsulfanyl-pyrimidin-4-yl)-thiophene-2-sulfonic acid (7-methyl-quinolin-8-yl)-amide]
–	–	> 5.00	> 5.00	CSc1nccc(-c2ccc(S(=O)(=O)Nc3cccc4cccnc34)s2)n1 [Compound 3-16, 5-(2-Methylsulfanyl-pyrimidin-4-yl)-thiophene-2-sulfonic acid quinolin-8-ylamide]
–	–	< 5.00	< 5.00	Cn1nc(-c2ccc(S(=O)(=O)Nc3cccc4cccnc34)s2)cc1C(F)(F)F [Compound 3-20, 5-(1-Methyl-5-trifluoromethyl-1H-pyrazol-3-yl)-thiophene-2-sulfonic acid quinolin-8-ylamide]
–	–	< 5.00	< 5.00	COc1cc(NS(=O)(=O)c2ccc(-c3cc(C(F)(F)F)n(C)n3)s2)c2ncccc2c1 [Compound 3-21, 5-(1-Methyl-5-trifluoromethyl-1H-pyrazol-3-yl)-thiophene-2-sulfonic acid (6-methoxy-quinolin-8-yl)-amide]
–	–	< 5.00	< 5.00	Cc1ccc2cccnc2c1NS(=O)(=O)c1ccc(-c2cc(C(F)(F)F)n(C)n2)s1 [Compound 3-22, 5-(1-Methyl-5-trifluoromethyl-1H-pyrazol-3-yl)-thiophene-2-sulfonic acid (7-methyl-quinolin-8-yl)-amide]
–	–	< 5.00	< 5.00	O=S(=O)(Nc1cccc2cccnc12)c1ccc(-c2ccon2)s1 [Compound 3-23, 5-Isoxazol-3-yl-thiophene-2-sulfonic acid quinolin-8-ylamide]
–	–	< 5.00	< 5.00	Cc1ccc2cccnc2c1NS(=O)(=O)c1ccc(-c2ccon2)s1 [Compound 3-24, 5-Isoxazol-3-yl-thiophene-2-sulfonic acid (7-methyl-quinolin-8-yl)-amide]
–	–	< 5.00	< 5.00	COc1cc(NS(=O)(=O)c2ccc(-c3ccon3)s2)c2ncccc2c1 [Compound 3-25, 5-Isoxazol-3-yl-thiophene-2-sulfonic acid (6-methoxy-quinolin-8-yl)-amide]
–	–	< 5.00	< 5.00	Cc1ccc2cccnc2c1NS(=O)(=O)c1ccc(-c2cc(C(F)(F)F)on2)s1 [Compound 3-26, 5-(5-Trifluoromethyl-isoxazol-3-yl)-thiophene-2-sulfonic acid (7-methyl-quinolin-8-yl)-amide]
–	–	< 5.00	< 5.00	COc1cc(NS(=O)(=O)c2ccc(-c3cc(C(F)(F)F)on3)s2)c2ncccc2c1 [Compound 3-27, 5-(5-Trifluoromethyl-isoxazol-3-yl)-thiophene-2-sulfonic acid (6-methoxy-quinolin-8-yl)-amide]
–	–	< 5.00	< 5.00	O=S(=O)(Nc1cccc2cccnc12)c1ccc(-c2cc(C(F)(F)F)on2)s1 [Compound 3-28, 5-(5-Trifluoromethyl-isoxazol-3-yl)-thiophene-2-sulfonic acid quinolin-8-ylamide]
–	–	< 5.00	< 5.00	Cc1ccc2cccnc2c1NS(=O)(=O)c1ccc(-c2ccccn2)s1 [Compound 3-29, 5-Pyridin-2-yl-thiophene-2-sulfonic acid (7-methyl-quinolin-8-yl)-amide]
–	–	< 5.00	< 5.00	O=S(=O)(Nc1cccc2cccnc12)c1ccc(-c2ccccn2)s1 [Compound 3-30, 5-Pyridin-2-yl-thiophene-2-sulfonic acid quinolin-8-ylamide]
–	–	< 5.00	> 5.00	COc1cc(NS(=O)(=O)c2ccc(-c3ccccn3)s2)c2ncccc2c1 [Compound 3-31, 5-Pyridin-2-yl-thiophene-2-sulfonic acid (6-methoxy-quinolin-8-yl)-amide]
–	–	< 5.00	< 5.00	O=C(NCc1ccc(S(=O)(=O)Nc2cccc3cccnc23)s1)c1ccccc1 [Compound 3-32, N-[5-(Quinolin-8-ylsulfamoyl)-thiophen-2-ylmethyl]-benzamide]
–	–	> 5.00	> 5.00	Cc1nc(-c2ccc(S(=O)(=O)Nc3cccc4cccnc34)s2)cs1 [Compound 3-33, 5-(2-Methyl-thiazol-4-yl)-thiophene-2-sulfonic acid quinolin-8-ylamide]
–	–	> 5.00	> 5.00	O=S(=O)(Nc1cccc2cccnc12)c1ccc(-c2cnco2)s1 [Compound 3-34, 5-Oxazol-5-yl-thiophene-2-sulfonic acid quinolin-8-ylamide]
–	–	< 5.00	< 5.00	O=S(=O)(Nc1cccc2cccnc12)c1cc(S(=O)(=O)c2ccccc2)cs1 [Compound 3-37, 4-Benzenesulfonyl-thiophene-2-sulfonic acid quinolin-8-ylamide]
–	–	< 5.00	< 5.00	Cc1ccc2cccnc2c1NS(=O)(=O)c1ccc(S(=O)(=O)c2ccccc2)s1 [Compound 3-38, 5-Benzenesulfonyl-thiophene-2-sulfonic acid (7-methyl-quinolin-8-yl)-amide]
